Experimental data taken from patent US20110086759A1, “CHEMICAL COMPOUNDS” (SYNGENTA CROP PROTECTION, INC., priority 2007, published 2011).

Legend:
Type in all cases: in vivo
Solanum nigrum (SOLNI) [1] = assay: Post-emergence biological efficacy, glasshouse pot test; conditions: 312 h
Description: (§1) Seeds of Alopecurus myosuroides (ALOMY), Setaria faberi (SETFA), Echinochloa crus-galli (ECHCG), Solanum nigrum (SOLNI), Amaranthus retoflexus (AMARE) and Ipomea hederaceae (IPOHE) were sown in standard soil in pots. After cultivation for 8 days under controlled conditions in a glasshouse (at 24/16° C., day/night; 14 hours light; 65% humidity), the plants were sprayed with an aqueous spray solution derived from the formulation of the technical active ingredient in acetone/water (50:50) solution containing 0.5% Tween 20 (polyoxyethelyene sorbitan monolaurate, CAS RN 9005-64-5) to give a final dose of 1000 or 250 g/ha of test compound.
(§2) The test plants were then grown on under controlled conditions in a glasshouse (at 24/16° C., day/night; 14 hours light; 65% humidity) and watered twice daily. After 13 days the test was evaluated (100=total damage to plant; 0=no damage to plant).

[2] = system: Echinochloa crus-galli (ECHCG); assay: as above; conditions: 312 h
Description: as §1, §2

[3] = system: Ipomea hederaceae (IPOHE); assay: as above; conditions: Ipomoea hederacea, 312 h
Description: as §1, §2

[4] = system: Amaranthus retoflexus (AMARE); assay: as above; conditions: Amaranthus retroflexus, 312 h
Description: as §1, §2

[5] = system: Alopecurus myosuroides (ALOMY); assay: as above; conditions: 312 h
Description: as §1, §2

Setaria faberi (SETFA) [6] = assay: as above; conditions: 312 h
Description: as §1, §2

Solanum nigrum (SOLNI) [7] = assay: Pre-emergence biological efficacy, glasshouse pot test; conditions: 312 h
Description: as §1, with “one day” for “8 days”
(§3) The test plants were then grown under controlled conditions in the glasshouse (at 24/16° C., day/night; 14 hours light; 65% humidity) and watered twice daily. After 13 days the test was evaluated (100=total damage to plant; 0=no damage to plant).

[8] = system: Echinochloa crus-galli (ECHCG); assay: as above; conditions: 312 h
Description: as §1, with “one day” for “8 days”
as §3

[9] = system: Ipomea hederaceae (IPOHE); assay: as above; conditions: Ipomoea hederacea, 312 h
Description: as §1, with “one day” for “8 days”
as §3

[10] = system: Amaranthus retoflexus (AMARE); assay: as above; conditions: Amaranthus retroflexus, 312 h
Description: as §1, with “one day” for “8 days”
as §3

[11] = system: Alopecurus myosuroides (ALOMY); assay: as above; conditions: 312 h
Description: as §1, with “one day” for “8 days”
as §3

Setaria faberi (SETFA) [12] = assay: as above; conditions: 312 h
Description: as §1, with “one day” for “8 days”
as §3

[13] = Rate 1,000 g/ha, post-emergence spray, evaluated after 13 days (100=total damage to plant; 0=no damage to plant), read-out: Percentage damage caused to weed species, post-emergence, SOLNI
[14] = Rate 1,000 g/ha, post-emergence spray, evaluated after 13 days (100=total damage to plant; 0=no damage to plant), read-out: Percentage damage caused to weed species, post-emergence, ECHCG
[15] = Rate 1,000 g/ha, post-emergence spray, evaluated after 13 days (100=total damage to plant; 0=no damage to plant), read-out: Percentage damage caused to weed species, post-emergence, IPOHE
[16] = Rate 1,000 g/ha, post-emergence spray, evaluated after 13 days (100=total damage to plant; 0=no damage to plant), read-out: Percentage damage caused to weed species, post-emergence, AMARE
[17] = Rate 1,000 g/ha, post-emergence spray, evaluated after 13 days (100=total damage to plant; 0=no damage to plant), read-out: Percentage damage caused to weed species, post-emergence, ALOMY
[18] = Rate 1,000 g/ha, post-emergence spray, evaluated after 13 days (100=total damage to plant; 0=no damage to plant), read-out: Percentage damage caused to weed species, post-emergence, SETFA
[19] = pre-emergence, rate 1,000 g/ha, evaluated after 13 days (100=total damage to plant; 0=no damage), read-out: Percentage damage caused to weed species, SOLNI
[20] = pre-emergence, rate 1,000 g/ha, evaluated after 13 days (100=total damage to plant; 0=no damage), read-out: Percentage damage caused to weed species, ECHCG
[21] = pre-emergence, rate 1,000 g/ha, evaluated after 13 days (100=total damage to plant; 0=no damage), read-out: Percentage damage caused to weed species, IPOHE
[22] = pre-emergence, rate 1,000 g/ha, evaluated after 13 days (100=total damage to plant; 0=no damage), read-out: Percentage damage caused to weed species, AMARE
[23] = pre-emergence, rate 1,000 g/ha, evaluated after 13 days (100=total damage to plant; 0=no damage), read-out: Percentage damage caused to weed species, ALOMY
[24] = pre-emergence, rate 1,000 g/ha, evaluated after 13 days (100=total damage to plant; 0=no damage), read-out: Percentage damage caused to weed species, SETFA

Structure (SMILES)	pest or weed control at 1000 g/ha (Solanum nigrum (SOLNI) [1]; [13])	pest or weed control at 1000 g/ha [2, 14]	pest or weed control at 1000 g/ha [3, 15]	pest or weed control at 1000 g/ha [4, 16]	pest or weed control at 1000 g/ha [5, 17]	pest or weed control at 1000 g/ha (Setaria faberi (SETFA) [6]; [18])	pest or weed control at 1000 g/ha (Solanum nigrum (SOLNI) [7]; [19])	pest or weed control at 1000 g/ha [8, 20]	pest or weed control at 1000 g/ha [9, 21]	pest or weed control at 1000 g/ha [10, 22]	pest or weed control at 1000 g/ha [11, 23]	pest or weed control at 1000 g/ha (Setaria faberi (SETFA) [12]; [24])	also measured
COCCN(C/C=C/c1ccco1)c1nc(C2CC2)nc(C(=O)OC)c1Cl [Compound 160-256, 5-Chloro-2-cyclopropyl-4-[N-(3-furan-2-yl-prop-2-enyl)-N-2-methoxyethyl-amino]-6-methoxycarbonyl-pyrimidine]	60%	0%	50%	90%	0%	40%	10%	0%	10%	20%	10%	0%	–
COC(=O)c1nc(C2CC2)nc(N[C@H]2CCCC[C@@H]2O)c1Cl (relative stereo) [4-36 (trans), 5-Chloro-2-cyclopropyl-4-(trans-2-hydroxycyclohexyl-amino)-6-methoxy-carbonylpyrimidine]	–	–	–	–	–	–	–	–	–	–	–	–	pest or weed control at 1000 g/ha (Solanum nigrum (SOLNI) [1]; post-emergence, 1,000 g/ha, evaluated after 13 days (100=total damage; 0=no damage), read-out: Percentage damage caused to weed species, SOLNI): 70%; pest or weed control at 1000 g/ha ([2]; post-emergence, 1,000 g/ha, evaluated after 13 days (100=total damage; 0=no damage), read-out: Percentage damage caused to weed species, ECHCG): 10%; pest or weed control at 1000 g/ha ([3]; post-emergence, 1,000 g/ha, evaluated after 13 days (100=total damage; 0=no damage), read-out: Percentage damage caused to weed species, IPOHE): 40%; pest or weed control at 1000 g/ha ([4]; post-emergence, 1,000 g/ha, evaluated after 13 days (100=total damage; 0=no damage), read-out: Percentage damage caused to weed species, AMARE): 80%; pest or weed control at 1000 g/ha ([5]; post-emergence, 1,000 g/ha, evaluated after 13 days (100=total damage; 0=no damage), read-out: Percentage damage caused to weed species, ALOMY): 20%; pest or weed control at 1000 g/ha (Setaria faberi (SETFA) [6]; post-emergence, 1,000 g/ha, evaluated after 13 days (100=total damage; 0=no damage), read-out: Percentage damage caused to weed species, SETFA): 20%; pest or weed control at 1000 g/ha (Solanum nigrum (SOLNI) [7]; pre-emergence, 1,000 g/ha, evaluated after 13 days (100=total damage; 0=no damage), read-out: Percentage damage SOLNI): 70%; pest or weed control at 1000 g/ha ([8]; pre-emergence, 1,000 g/ha, evaluated after 13 days (100=total damage; 0=no damage), read-out: Percentage damage ECHCG): 20%; pest or weed control at 1000 g/ha ([9]; pre-emergence, 1,000 g/ha, evaluated after 13 days (100=total damage; 0=no damage), read-out: Percentage damage IPOHE): 60%; pest or weed control at 1000 g/ha ([10]; pre-emergence, 1,000 g/ha, evaluated after 13 days (100=total damage; 0=no damage), read-out: Percentage damage AMARE): 80%; pest or weed control at 1000 g/ha ([11]; pre-emergence, 1,000 g/ha, evaluated after 13 days (100=total damage; 0=no damage), read-out: Percentage damage ALOMY): 10%; pest or weed control at 1000 g/ha (Setaria faberi (SETFA) [12]; pre-emergence, 1,000 g/ha, evaluated after 13 days (100=total damage; 0=no damage), read-out: Percentage damage SETFA): 20%
COC(=O)c1nc(C2CC2)nc(N(C)Cc2ccc(Cl)c(Cl)c2)c1Cl [Compound 5-105, 5-Chloro-2-cyclopropyl-4-[N-(3,4-dichlorophenyl-methyl)-N-methyl-amino]-6-methoxy-carbonylpyrimidine]	80%	40%	80%	100%	30%	60%	60%	10%	60%	80%	10%	30%	–
